Assay results reported in ChEMBL document CHEMBL1136094, “Novel, potent and selective cyclin D1/CDK4 inhibitors: indolo[6,7-a]pyrrolo[3,4-c]carbazoles” (Bioorg Med Chem Lett, 2003).
Converted amounts (≈) assume the structure as drawn.

What was measured:
[1] = target: Cyclin-dependent kinase 4 (Homo sapiens) (UniProt P11802); assay: Inhibition of Rb phosphorylation at the CDK4 specific Ser780 residue (1 fold increase over control) after 24 hr incubation in HCT116 cells; assay type: functional, cell-based; settings: HCT-116, concentration not given here
[2] = target: T1, Cyclin-dependent kinase 4/cyclin D1 (Homo sapiens, UniProt P11802); assay: Inhibitory activity against Cyclin D1-cyclin-dependent kinase 4 in enzymatic assay by measuring phosphorylation of Rb21; assay type: protein-complex assay
[3] = target: CaM kinase II (Homo sapiens, UniProt Q13557+Q13555+Q13554+Q9UQM7); assay: Inhibitory activity against Calcium/calmodulin-dependent protein kinase type II; assay type: protein assay
[4] = target: cAMP-dependent protein kinase (PKA) (Homo sapiens, UniProt P22694+P17612+P22612); assay: Inhibitory activity against Protein kinase A (Histone); assay type: protein assay
[5] = test system: NCI-H460; assay: In vitro antiproliferative activity against human carcinoma cell line H460 (lung); assay type: functional, cell-based
[6] = test system: HCT-116; assay: GI arrest (3 fold increase over control) in HCT116 cells was determined by flow cytometry after 24 hr incubation; assay type: functional, Homo sapiens
[7] = Aqueous solubility (in situ) in D5W after 1 week was determined; assay type: physicochemical; settings: for solubility at 168 h: D5W
[8] = test system: HCT-116; assay: (§1) Flow cytometry of HCT116 cells, G1 arrest (3 fold increase over control) after 24 hr r; assay type: functional
[9] = target: Cyclin-dependent kinase 2/cyclin E (Homo sapiens, UniProt P24941); assay: Inhibitory activity against Cyclin E-cyclin-dependent kinase 2 in enzymatic assay by measuring phosphorylation of RbING; assay type: protein-complex assay
[10] = target: T1, Cyclin-dependent kinase 4/cyclin D1; assay: Inhibitory activity against Cyclin D1-cyclin-dependent kinase 4 in enzymatic assay by measuring phosphorylation of RbING; assay type: protein-complex assay
[11] = test system: HCT-116; assay: In vitro antiproliferative activity against human carcinoma cell line HCT116 (colon); assay type: functional, cell-based
[12] = target: Cyclin-dependent kinase 4 (Homo sapiens) (UniProt P11802); assay: Inhibition of Cyclin-dependent kinase 4 specific Ser780 Rb phosphorylation, 3 fold increase over 24 hr incubation in HCT116 cells; assay type: functional, cell-based; settings: HCT-116; concentration not given here
[13] = test system: HCT-116; assay: GI arrest (1 fold increase over control) in HCT116 cells was determined by flow cytometry after 24 hr incubation; assay type: functional, Homo sapiens
[14] = target: Cyclin-dependent kinase 4 (Homo sapiens) (UniProt P11802); assay: Inhibition of Rb phosphorylation at the CDK4 specific Ser780 residue (3 fold increase over control) after 24 hr incubation in HCT116 cells; assay type: functional, cell-based; settings: HCT-116, concentration not given here
[15] = target: Cyclin-dependent kinase 2/cyclin E1 (Homo sapiens, UniProt P24941); assay: Inhibition of RbING phosphorylation by Cyclin E1-cyclin-dependent kinase 2; assay type: protein-complex assay
[16] = test system: HCT-116; assay: Flow cytometry of HCT116 cells, G1 arrest (2.6 fold increase over control) after 24 hr r; assay type: functional, Homo sapiens
[17] = test system: HCT-116; assay: Flow cytometry of HCT116 cells, G1 arrest ( fold increase over control) after 24 hr r; assay type: functional, Homo sapiens
[18] = test system: HCT-116; assay: Flow cytometry of HCT116 cells, G1 arrest (fold increase over control) after 24 hr r incubation; assay type: functional, Homo sapiens
[19] = test system: HCT-116; assay: Flow cytometry of HCT116 cells, G1 arrest (1 fold increase over control) after 24 hr r; assay type: functional, Homo sapiens
[20] = test system: HCT-116; assay: as §1; assay type: functional, Homo sapiens

T1 sequence (P11802 whole entry): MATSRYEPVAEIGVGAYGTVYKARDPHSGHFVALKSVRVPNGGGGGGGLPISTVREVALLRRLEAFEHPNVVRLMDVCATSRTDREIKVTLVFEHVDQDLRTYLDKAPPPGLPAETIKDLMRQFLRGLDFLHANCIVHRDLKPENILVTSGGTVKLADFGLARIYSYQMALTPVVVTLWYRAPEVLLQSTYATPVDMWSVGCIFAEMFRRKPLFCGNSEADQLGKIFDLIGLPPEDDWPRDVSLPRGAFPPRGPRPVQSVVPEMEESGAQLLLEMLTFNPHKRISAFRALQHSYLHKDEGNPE
T1 sequence (P24385 whole entry, further chain): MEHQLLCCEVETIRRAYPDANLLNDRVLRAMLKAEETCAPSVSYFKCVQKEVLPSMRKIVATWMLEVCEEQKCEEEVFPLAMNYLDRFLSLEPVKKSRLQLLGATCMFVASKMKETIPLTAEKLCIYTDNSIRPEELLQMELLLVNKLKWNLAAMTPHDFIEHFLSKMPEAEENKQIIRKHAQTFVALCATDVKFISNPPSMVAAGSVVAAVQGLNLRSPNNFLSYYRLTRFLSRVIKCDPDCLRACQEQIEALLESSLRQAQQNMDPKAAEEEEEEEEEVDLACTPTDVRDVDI
Sequence of Cyclin-dependent kinase 4 (Homo sapiens) (P11802 whole entry): as the sequence (P11802 whole entry) above

| Compound | inhibition [1] | IC50 [2] | IC50 [3] | IC50 [4] | IC50 [5] | solubility at 168 h [7] | IC50 [9] | IC50 [10] | IC50 [11] | inhibition [14] | Fold increase [6] | Fold increase [13] | other results |
| --- | --- | --- | --- | --- | --- | --- | --- | --- | --- | --- | --- | --- | --- |
| Cn1ccc2ccc3c4[nH]c5c(CCN6CCCCC6)cccc5c4c4c(c3c21)C(=O)NC4=O | 69% | – | 62 nM | 9140 nM | 2470 nM | 8500 µg/mL (≈ 18.9 mM) | 1060 nM | 45 nM | 2120 nM | 78% | 2.1 | 1.8 | – |
| COc1ccc2c3c4c(c5c(ccc6ccn(C)c65)c3n(CCCO)c2c1)C(=O)NC4=O | 66% | 12 nM | – | 1040 nM | 500 nM | – | 113 nM | 54 nM | 1620 nM | 95% | – | 2.4 | – |
| COc1cc2ccn(C)c2c2c3c(c4c5ccccc5[nH]c4c12)C(=O)NC3=O | 56% | 18 nM | – | – | 690 nM | – | 67 nM | 32 nM | 1900 nM | 77% | 2.1 | 1.8 | – |
| Cn1ccc2ccc3c4[nH]c5c(CCN6CCC(C(N)=O)CC6)cccc5c4c4c(c3c21)C(=O)NC4=O | 52% | 5 nM | 25 nM | 5890 nM | 1350 nM | – | 796 nM | 51 nM | 1000 nM | 55% | 2.2 | 1.9 | – |
| Cn1ccc2ccc3c4[nH]c5c(CCN6CCOCC6)cccc5c4c4c(c3c21)C(=O)NC4=O | – | 15 nM | 177 nM | > 20000 nM | 1910 nM | 8700 µg/mL (≈ 19.2 mM) | 1280 nM | 54 nM | 1630 nM | – | 2.2 | 1.5 | – |
| COc1ccc2c3c4c(c5c(ccc6ccn(C)c65)c3n(CCNCCO)c2c1)C(=O)NC4=O | 71% | 21 nM | 527 nM | 3740 nM | 1310 nM | 6000 µg/mL (≈ 13.1 mM) | 89 nM | 35 nM | 1470 nM | 92% | – | 3.1 | – |
| Cl.Cn1ccc2ccc3c4[nH]c5c(CCN6CCOCC6)cccc5c4c4c(c3c21)C(=O)NC4=O | – | – | – | – | – | – | – | – | – | – | 2.3 | 1.2 | – |
| Cn1ccc2ccc3c4[nH]c5c(CCO)cccc5c4c4c(c3c21)C(=O)NC4=O | 60% | 75 nM | – | > 2000 nM | – | – | 210 nM | 82 nM | 1130 nM | 92% | – | – | Fold increase [19]: 1.4; Fold increase [20]: 2.7 |

Continued by falling IC50 [10], values first:

| inhibition [1] | IC50 [2] | IC50 [3] | IC50 [4] | IC50 [5] | solubility at 168 h [7] | IC50 [9] | IC50 [10] | IC50 [11] | inhibition [14] | Compound | Fold increase [6] | Fold increase [13] | other results |
| --- | --- | --- | --- | --- | --- | --- | --- | --- | --- | --- | --- | --- | --- |
| 58% | 13 nM | 3050 nM | 3380 nM | 2440 nM | – | 1000 nM | 77 nM | 1960 nM | 67% | COc1ccc2c3c4c(c5c(ccc6ccn(C)c65)c3n(CCCN3CCC(C(N)=O)CC3)c2c1)C(=O)NC4=O | – | 1.9 | Fold increase [16]: 2.5 |
| 57% | 28 nM | 732 nM | 3150 nM | 1280 nM | 8600 µg/mL (≈ 18.3 mM) | 432 nM | 72 nM | 1550 nM | 78% | COc1ccc2c3c4c(c5c(ccc6ccn(C)c65)c3n(CCCNCCO)c2c1)C(=O)NC4=O | 2.7 | 1.8 | – |
| 67% | 23 nM | 1170 nM | 18000 nM | 1050 nM | 7800 µg/mL (≈ 15.3 mM) | 902 nM | 63 nM | 890 nM | – | COc1ccc2c3c4c(c5c(ccc6ccn(C)c65)c3n(CCN[C@H]3CC[C@H](O)CC3)c2c1)C(=O)NC4=O | 2 | – | Solubility ([7]; buffer, 168 h): 7800 µg/mL (≈ 15.3 mM); Fold increase [8]: 2; inhibition [12]: 95% |
| 71% | – | – | 13200 nM | 710 nM | – | – | 54 nM | 1130 nM | 86% | COc1cc2c3[nH]c4ccccc4c3c3c(c2c2c1ccn2C)C(=O)NC3=O | 2.2 | 1.2 | IC50 [15]: 35 nM |
| 90% | 6 nM | – | > 20000 nM | 1090 nM | – | 112 nM | 53 nM | 1800 nM | 97% | COc1ccc2c(c1)[nH]c1c3ccc4ccn(C)c4c3c3c(c21)C(=O)NC3=O | – | 2.6 | – |
| 78% | 5 nM | 49 nM | 9810 nM | 2820 nM | – | 450 nM | 53 nM | 1230 nM | 87% | Cn1ccc2ccc3c4[nH]c5c(CCN[C@H]6CC[C@H](O)CC6)cccc5c4c4c(c3c21)C(=O)NC4=O | – | 2 | – |
| 63% | 22 nM | – | > 2000 nM | 1170 nM | – | 75 nM | 47 nM | 2110 nM | 97% | Cn1ccc2ccc3c4[nH]c5ccccc5c4c4c(c3c21)C(=O)NC4=O | – | – | Fold increase [17]: 2.5; Fold increase [18]: 1.4 |
